For the assay, the target named is human LPAR1 (Homo sapiens, UniProt Q92633). The assay can be described thus: In vitro functional assay of lysophosphatidic acid receptor 1 activity (calcium flux). In kind it is cell-based.
Where [1] appears, read: B103 cells stably expressing human LPAR1, calcium flux (Fluo-4 NW) after lysophosphatidic acid (18:1) at EC80, 100 pM to 10 μM, read-out: LPAR1 IC50.

Read-outs that look alike come from different tables or passages of the source. A value given as a limit tells only on which side of the number the result lay.

For orientation: IC50 means the midpoint of a concentration-inhibition curve.

Sequence of human LPAR1 (Q92633 whole entry): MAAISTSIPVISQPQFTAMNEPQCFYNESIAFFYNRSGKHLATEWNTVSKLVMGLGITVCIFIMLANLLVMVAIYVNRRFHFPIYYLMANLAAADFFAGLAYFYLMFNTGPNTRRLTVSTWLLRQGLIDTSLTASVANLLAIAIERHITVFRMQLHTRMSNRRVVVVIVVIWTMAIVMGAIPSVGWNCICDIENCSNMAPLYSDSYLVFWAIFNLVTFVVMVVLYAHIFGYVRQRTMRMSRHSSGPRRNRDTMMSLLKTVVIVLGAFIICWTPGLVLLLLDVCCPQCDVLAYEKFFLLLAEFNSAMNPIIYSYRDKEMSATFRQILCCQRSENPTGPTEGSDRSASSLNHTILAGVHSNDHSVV

With `COc1nc(C(F)F)ccc1NC(=O)N(c1ccccc1C(C)C)C1CCN(C(C)=O)CC1` [Example 113], the IC50 (LPAR1 IC50) was in the range of 10 to 100 nM.
Consider `COc1ccc(NC(=O)N(c2ccccc2C(C)C)[C@@H]2C[C@@H]3CC[C@H]2N3C(C)=O)c(OC(F)F)n1` (racemic) [Example 59, rac-1-((1R,2R,4S)-7-acetyl-7-azabicyclo[2.2.1]heptan-2-yl)-3-(2-(difluoromethoxy)-6-methoxypyridin-3-yl)-1-(2-isopropylphenyl)urea], for which the 50% inhibitory concentration (IC50) under setting [1] lay within 100 to 1000 nM.
For `CC(=O)N1CCC(N(C(=O)Nc2cnc(C(F)(F)F)cn2)c2ccccc2C(C)C)CC1` [Example 132], the IC50 (LPAR1 IC50) is more than 1000 nM.
Take `COc1ccc(NC(=O)N(c2ccccc2C(C)C)[C@H]2CCC[C@H](C(=O)O)C2)c(OC(F)F)n1` [Example 146]: under setting [1], the IC50 lay within 10 to 100 nM.
On the same count and under the same terms, the figure for `Cc1ccc(NC(=O)N(c2ccccc2C(C)C)C2CC(=O)C2)c(OC(F)F)n1` [Example 195] is 10 to 100 nM.
As for `COc1nc(C#N)ccc1NC(=O)N(c1ccccc1C(C)C)C1CCN(C(C)=O)CC1` [Example 185, 1-(1-acetylpiperidin-4-yl)-3-(6-cyano-2-methoxypyridin-3-yl)-1-(2-isopropylphenyl)urea], where the note is “LPAR1 IC50”, the IC50 lay in the range of 100 to 1000 nM.
Turning to `COc1cc(C(F)F)ncc1NC(=O)N(c1ccccc1C(C)C)[C@H]1C[C@@H](CC(=O)O)C1` [Example 307], the IC50 under setting [1] is 100 to 1000 nM.
`COc1ccc(NC(=O)N(c2ccccc2C(C)C)[C@@H]2C[C@H]3CC[C@@H](C2)N3C(C)=O)c(OC(F)F)n1` [Example 55, 1-((1R,3r,5S)-8-acetyl-8-azabicyclo[3.2.1]octan-3-yl)-3-(2-(difluoromethoxy)-6-methoxypyridin-3-yl)-1-(2-isopropylphenyl)urea]: the IC50 (LPAR1 IC50) is 100 to 1000 nM.
Still for that read-out and setting: the figure for `COc1ccc(NC(=O)N(c2ccccc2C(C)C)[C@H]2CCN(C(C)=O)C[C@H]2F)c(OC(F)F)n1` [Example 48, 1-((3R,4S)-1-acetyl-3-fluoropiperidin-4-yl)-3-(2-(difluoromethoxy)-6-methoxypyridin-3-yl)-1-(2-isopropylphenyl)urea] is 10 to 100 nM.
Take `COc1cc(F)c(Cl)cc1NC(=O)N(c1ccccc1C(C)C)[C@H]1CC[C@H](C(=O)O)CC1` [Example 300, (1r,4r)-4-(3-(5-chloro-4-fluoro-2-methoxyphenyl)-1-(2-isopropylphenyl)ureido)cyclohexane-1-carboxylic acid]: the half-inhibitory concentration (IC50) under setting [1] was in the range of 100 to 1000 nM.
For the molecule `COc1ccc(NC(=O)N(c2ccccc2C(C)C)[C@H]2CC[C@H](S(C)(=O)=O)CC2)c(OC(F)F)n1` [Example 258, 3-(2-(difluoromethoxy)-6-methoxypyridin-3-yl)-1-(2-isopropylphenyl)-1-((1r,4r)-4-(methylsulfonyl)cyclohexyl)urea], under setting [1], the half-inhibitory concentration (IC50) is 100 to 1000 nM.
On the same count and under the same terms, the figure for `CC(C)c1ccccc1N(C(=O)Nc1cc(F)c(F)cc1OC(F)F)[C@H]1C[C@@H](CC(=O)O)C1` [Example 329] is less than 10 nM.
With `COc1ccc(NC(=O)N(c2ccccc2C(C)C)[C@@H]2C[C@H]3C[C@@H]2CN3C(C)=O)c(OC(F)F)n1` [Example 58, 1-((1R,4R,5R)-2-acetyl-2-azabicyclo[2.2.1]heptan-5-yl)-3-(2-(difluoromethoxy)-6-methoxypyridin-3-yl)-1-(2-isopropylphenyl)urea], the half-inhibitory concentration (IC50) (LPAR1 IC50) is more than 1000 nM.
With `Cc1ccc(NC(=O)N(CC23CC(C(=O)O)(CO2)C3)c2ccccc2C(C)C)c(OC(F)F)n1` [Example 168], the concentration for half-maximal inhibition (IC50) under setting [1] lay within 10 to 100 nM.
As for `COc1ccc(NC(=O)N(c2ccccc2C(C)C)[C@H]2CC[C@@H](C(=O)O)CC2)c(OC(F)F)n1` [Example 145], under setting [1], the half-maximal inhibitory concentration (IC50) fell in the range of 100 to 1000 nM.
Turning to `Cc1ccc(NC(=O)N(c2ccccc2C(C)C)[C@H]2CC[C@@H](C=O)CC2)c(OC(F)F)n1` [Example 244], the concentration for half-maximal inhibition (IC50) under setting [1] is more than 1000 nM.
As for `COc1ccc(NC(=O)N(c2ccccc2C(C)C)[C@H]2CC[C@H](C(=O)NO)CC2)c(OC(F)F)n1` [Example 281], the 50% inhibitory concentration (IC50) under setting [1] lay in the range of 10 to 100 nM.
In the case of `COc1ccc(NC(=O)N(c2ccccc2C(C)C)[C@H]2CC[C@H](C(=O)O)CC2)c(OC(F)F)n1` [Example 144, trans-4-(3-(2-(difluoromethoxy)-6-methoxypyridin-3-yl)-1-(2-isopropylphenyl)ureido)cyclohexane-1-carboxylic acid], under setting [1], the IC50 was 10 to 100 nM.
As for `COc1ccc(NC(=O)N(c2ccccc2C(C)C)C2CN(C(C)=O)C2)c(OC)c1C` [Example 119], the IC50 under setting [1] is 100 to 1000 nM.
Take `Cc1ccc(NC(=O)N(c2ccccc2C(C)C)[C@H]2CC[C@H](c3nnn[nH]3)CC2)c(OC(F)F)n1` [Example 248]: under setting [1], the IC50 fell in the range of 100 to 1000 nM.
As to `COC(=O)N1CCC(N(C(=O)Nc2ccc(OC)nc2OC(F)F)c2ccccc2C(C)C)CC1` [Example 63, methyl 4-(3-(2-(difluoromethoxy)-6-methoxypyridin-3-yl)-1-(2-isopropylphenyl)ureido)piperidine-1-carboxylate], the concentration for half-maximal inhibition (IC50) (LPAR1 IC50) fell in the range of 10 to 100 nM.
For `CC(=O)N1CCC(N(C(=O)Nc2ccc(C)nc2OCC(F)(F)F)c2ccccc2C(C)C)CC1` [Example 104], for the setting “LPAR1 IC50”, the concentration for half-maximal inhibition (IC50) fell in the range of 100 to 1000 nM.
Take `CC(=O)N1CCC(N(C(=O)Nc2cncc(F)c2)c2ccccc2C(C)C)CC1` [Example 246]: under “LPAR1 IC50”, the IC50 was more than 1000 nM.
Turning to `Cc1ccc(NC(=O)N(c2ccccc2C(C)C)[C@H]2C[C@H](C(N)=O)C2)c(OC(F)F)n1` [Example 186, (1r,3r)-3-(3-(2-(difluoromethoxy)-6-methylpyridin-3-yl)-1-(2-isopropylphenyl)ureido)cyclobutane-1-carboxamide], under setting [1], the IC50 is more than 1000 nM.
For `COc1ccc(NC(=O)N(c2ccccc2C(C)C)C2CCN(C(C)=O)CC2)c(OCC(F)F)n1` [Example 106], where the note is “LPAR1 IC50”, the IC50 fell in the range of 10 to 100 nM.
`Cc1ccc(NC(=O)N(c2ccccc2C(C)C)C2CN(C(=O)OC(C)(C)C)C2)c(OC(F)F)n1` [Example 2, tert-butyl 3-(3-(2-(difluoromethoxy)-6-methylpyridin-3-yl)-1-(2-isopropylphenyl)ureido)azetidine-1-carboxylate]: the IC50 under setting [1] is 100 to 1000 nM.
For the molecule `Cc1ccc(NC(=O)N(CC23CCC(C(=O)O)(CC2)CC3)c2ccccc2C(C)C)c(OC(F)F)n1` [Example 167], the IC50 under setting [1] was 10 to 100 nM.
On to `Cc1ccc(NC(=O)N(c2ccccc2C(C)C)C2CC(NS(C)(=O)=O)C2)c(OC(F)F)n1` (stereo not shown) [Example 272, N-(3-(3-(2-(difluoromethoxy)-6-methylpyridin-3-yl)-1-(2-isopropylphenyl)ureido)cyclobutyl)methanesulfonamide], for which, under setting [1], the IC50 lay in the range of 10 to 100 nM.
With `Cc1ccc(NC(=O)N(c2ccccc2C(C)C)[C@@H]2CC[C@@H](C(=O)O)C2)c(OC(F)F)n1` [Example 303], the IC50 under setting [1] is less than 10 nM.
`COc1cc(Cl)c(F)cc1NC(=O)N(c1ccccc1C(C)C)[C@H]1C[C@@H](CC(=O)O)C1` [Example 330]: the half-inhibitory concentration (IC50) under setting [1] was less than 10 nM.
Still for that read-out and setting: the figure for `[2H]C([2H])([2H])Oc1ccc(NC(=O)N(c2ccccc2C(C([2H])([2H])[2H])C([2H])([2H])[2H])[C@H]2CC[C@H](C(=O)O)CC2)c(OC(F)F)n1` [Example 262] is less than 10 nM; for `Cc1ccc(NC(=O)N(c2ccccc2C(C)C)[C@H]2C[C@@H](C#N)C2)c(OC(F)F)n1` [Example 26, 1-((1s,3s)-3-cyanocyclobutyl)-3-(2-(difluoromethoxy)-6-methylpyridin-3-yl)-1-(2-isopropylphenyl)urea] it is 100 to 1000 nM; for `COc1cc(C(F)F)ncc1NC(=O)N(c1ccccc1C(C)C)[C@H]1CC[C@H](C(=O)O)CC1` [Example 294, (1r,4r)-4-(3-(6-(difluoromethyl)-4-methoxypyridin-3-yl)-1-(2-isopropylphenyl)ureido)cyclohexane-1-carboxylic acid] it is 100 to 1000 nM.
On the same count and under the same terms, the figure for `COc1ccc(NC(=O)N(c2ccccc2C2CC2)[C@H]2CC[C@@H](C(=O)O)CC2)c(OC(F)F)n1` [Example 274] is 100 to 1000 nM.
`Cc1ccc(NC(=O)N(C[C@H]2CCN2C(=O)OC(C)(C)C)c2ccccc2C(C)C)c(OC(F)F)n1` [Example 11, tert-butyl (R)-2-((3-(2-(difluoromethoxy)-6-methylpyridin-3-yl)-1-(2-isopropylphenyl)ureido)methyl)azetidine-1-carboxylate]: the concentration for half-maximal inhibition (IC50) under setting [1] is more than 1000 nM.
Consider `CC(=O)N1CCC(N(C(=O)Nc2ncc(Br)nc2OC(F)F)c2ccccc2C(C)C)CC1` [Example 184, 1-(1-acetylpiperidin-4-yl)-3-(5-bromo-3-(difluoromethoxy)pyrazin-2-yl)-1-(2-isopropylphenyl)urea], for which, for the setting “LPAR1 IC50”, the IC50 fell in the range of 100 to 1000 nM.
As to `CC(C)c1ccccc1N(C(=O)Nc1ccc(O)nc1OC(F)F)[C@H]1CC[C@H](C(=O)O)CC1` [Example 320], under setting [1], the 50% inhibitory concentration (IC50) is 10 to 100 nM.
As for `Cc1ccc(NC(=O)N(c2ccccc2C(C)C)[C@H]2C[C@@H](OCc3ccccc3)C2)c(OC(F)F)n1` [Example 24, 1-((1s,3s)-3-(benzyloxy)cyclobutyl)-3-(2-(difluoromethoxy)-6-methylpyridin-3-yl)-1-(2-isopropylphenyl)urea], the IC50 under setting [1] is more than 1000 nM.
Turning to `COc1ccc(NC(=O)N(c2ccccc2C(C)C)[C@H]2C[C@H](C(=O)O)C2)c(OC(F)F)n1` [Example 151], the IC50 under setting [1] was in the range of 10 to 100 nM.
`COc1ccc(NC(=O)N(c2ccccc2C(C)C)[C@H]2CCN(C(C)=O)C[C@H]2F)c(OC(F)F)n1` (racemic) [Example 47, rac-1-((3R,4S)-1-acetyl-3-fluoropiperidin-4-yl)-3-(2-(difluoromethoxy)-6-methoxypyridin-3-yl)-1-(2-isopropylphenyl)urea]: the IC50 (LPAR1 IC50) was 10 to 100 nM.
As to `COc1ccc(NC(=O)N(c2ccccc2C(C)C)[C@H]2CC[C@H](C(=O)NS(C)(=O)=O)CC2)c(OC(F)F)n1` [Example 279, (1r,4r)-4-(3-(2-(difluoromethoxy)-6-methoxypyridin-3-yl)-1-(2-isopropylphenyl)ureido)-N-(methylsulfonyl)cyclohexane-1-carboxamide], the IC50 under setting [1] is less than 10 nM.
The same measure, in the same setting: the figure for `COc1ccc(NC(=O)N(c2ccccc2C(C)C)[C@H]2C[C@@]3(C[C@@H]3C(=O)O)C2)c(OC(F)F)n1` [Example 149] is 10 to 100 nM.
Take `Cc1ccc(NC(=O)N(c2ccccc2C(C)C)C2CC(O)(C(F)(F)F)C2)c(OC(F)F)n1` (stereo not shown) [Example 196, 3-(2-(difluoromethoxy)-6-methylpyridin-3-yl)-1-(3-hydroxy-3-(trifluoromethyl)cyclobutyl)-1-(2-isopropylphenyl)urea]: under setting [1], the IC50 is more than 1000 nM.
